According to patent publication US12577206B2 (BRISTOL-MYERS SQUIBB COMPANY, priority 2020, dated 2026):

Experiments:
human FPR2 = target: T1, human FPR2 (Homo sapiens, UniProt P25090); test: FPR2 cyclic adenosine monophosphate (cAMP) assay; format: cell-based; details: CHO cells overexpressing human FPR2; forskolin 5 μM; inhibition of cAMP production; HTRF; read-out: hFPR2 cAMP2 EC50
T1 sequence (P25090 1-351): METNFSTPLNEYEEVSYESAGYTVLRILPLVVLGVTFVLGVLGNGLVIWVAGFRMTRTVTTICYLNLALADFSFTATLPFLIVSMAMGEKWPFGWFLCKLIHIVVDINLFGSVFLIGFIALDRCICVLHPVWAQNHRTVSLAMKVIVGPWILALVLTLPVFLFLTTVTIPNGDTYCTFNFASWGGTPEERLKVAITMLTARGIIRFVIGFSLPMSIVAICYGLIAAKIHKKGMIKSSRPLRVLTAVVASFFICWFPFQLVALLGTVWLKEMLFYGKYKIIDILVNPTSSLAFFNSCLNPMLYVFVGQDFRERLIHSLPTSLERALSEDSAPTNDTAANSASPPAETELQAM
Method in brief: (§1)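 CHO/hFPR1 4,000 cells/well, forskolin 10 μM final; CHO/hFPR2 2,000 cells/well, forskolin 5 μM final. IBMX 200 μM, DMSO 1%, DPBS + Ca/Mg + 0.1% BSA, 30 min rt. HTRF cAMP; 4-PL fit.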

human FPR1 = target: T2, human FPR1 (Homo sapiens, UniProt P21462); test: FPR1 cyclic adenosine monophosphate (cAMP) assay; format: cell-based; details: CHO cells overexpressing human FPR1; forskolin 10 μM; inhibition of cAMP production; HTRF; read-out: hFPR1 cAMP2 EC50
T2 sequence (P21462 1-350): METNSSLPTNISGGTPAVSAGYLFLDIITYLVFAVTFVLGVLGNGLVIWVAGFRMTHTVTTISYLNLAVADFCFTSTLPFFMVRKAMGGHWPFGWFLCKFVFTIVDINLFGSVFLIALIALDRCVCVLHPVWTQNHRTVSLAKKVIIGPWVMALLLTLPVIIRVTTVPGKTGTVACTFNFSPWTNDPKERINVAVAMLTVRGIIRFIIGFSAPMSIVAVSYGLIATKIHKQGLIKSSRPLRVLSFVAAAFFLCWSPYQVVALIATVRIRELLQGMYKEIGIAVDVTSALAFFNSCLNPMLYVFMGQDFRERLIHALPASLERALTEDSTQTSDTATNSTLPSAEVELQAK
Method in brief: as §1

| SMILES | EC50 (human FPR2) | EC50 (human FPR1) |
| --- | --- | --- |
| COc1cc(F)c(-c2c(NC(=O)c3ccc(OC(F)F)cc3)c(=O)n(-c3nc(Cl)ccc3N3CCN(C)CC3)n2C)c(F)c1 [Example 217, N-{2-[6-chloro-3-(4-methylpiperazin-1-yl)pyridin-2-yl]-5-(2,6-difluoro-4-methoxyphenyl)-1-methyl-3-oxo-2,3-dihydro-1H-pyrazol-4-yl}-4-(difluoromethoxy)benzamide] | 6 nM | > 10000 nM |
| COc1cc(F)c(-c2c(NC(=O)c3ccc(OC(F)F)cc3)c(=O)n(-c3cccc(C(C)O)n3)n2C)c(F)c1 (stereo not drawn) [Example 86, N-[5-(2,6-difluoro-4-methoxyphenyl)-2-[6-(1-hydroxyethyl)pyridin-2-yl]-1-methyl-3-oxo-2,3-dihydro-1H-pyrazol-4-yl]-4-(difluoromethoxy)benzamide] | 10 nM | 1400 nM |
| Cn1c(-c2ccc(C(F)(F)F)cc2)c(NC(=O)c2ccc(OC(F)F)cc2)c(=O)n1-c1ncccc1C(F)(F)F [Example 301, 4-(difluoromethoxy)-N-{1-methyl-3-oxo-5-[4-(trifluoromethyl)phenyl]-2-[3-(trifluoromethyl)pyridin-2-yl]-2,3-dihydro-1H-pyrazol-4-yl}benzamide] | 6 nM | 140 nM |
| COc1cc(F)c(-c2c(NC(=O)c3ccc(OC(F)F)cc3)c(=O)n(-c3nccc(C)c3C#N)n2C)c(F)c1 [Example 201, N-[2-(3-cyano-4-methylpyridin-2-yl)-5-(2,6-difluoro-4-methoxyphenyl)-1-methyl-3-oxo-2,3-dihydro-1H-pyrazol-4-yl]-4-(difluoromethoxy)benzamide] | 4 nM | > 10000 nM |
| COc1cc(F)c(-c2c(NC(=O)c3ccc(OC(F)F)cc3)c(=O)n(-c3cccc(N4CCCCC4)n3)n2C)c(F)c1 [Example 80, N-[5-(2,6-difluoro-4-methoxyphenyl)-1-methyl-3-oxo-2-[6-(piperidin-1-yl)pyridin-2-yl]-2,3-dihydro-1H-pyrazol-4-yl]-4-(difluoromethoxy)benzamide] | 2 nM | 1300 nM |
| COCC(CO)Oc1cc(OC)cc(-n2c(=O)c(NC(=O)c3ccc(OC(F)F)cc3)c(-c3c(F)cc(OC)cc3F)n2C)n1 (stereo not drawn) [Example 386, N-(5-(2,6-Difluoro-4-methoxyphenyl)-2-(6-((1-hydroxy-3-methoxypropan-2-yl)oxy)-4-methoxypyridin-2-yl)-1-methyl-3-oxo-2,3-dihydro-1H-pyrazol-4-yl)-4-(difluoromethoxy)benzamide] | 9 nM | > 10000 nM |
| COc1cc(F)c(-c2c(NC(=O)c3ccc(OC(F)F)cc3)c(=O)n(-c3cccc(CN(C)C)n3)n2C)c(F)c1 [Example 204, N-[5-(2,6-difluoro-4-methoxyphenyl)-2-{6-[(dimethylamino)methyl]pyridin-2-yl}-1-methyl-3-oxo-2,3-dihydro-1H-pyrazol-4-yl]-4-(difluoromethoxy)benzamide] | 15 nM | > 10000 nM |
| CNc1ccc(C(F)(F)F)c(-n2c(=O)c(NC(=O)c3ccc(OC(F)F)cc3)c(-c3c(O)cc(OC)cc3F)n2C)n1 [Example 233, 4-(difluoromethoxy)-N-[5-(2-fluoro-6-hydroxy-4-methoxyphenyl)-1-methyl-2-[6-(methylamino)-3-(trifluoromethyl)pyridin-2-yl]-3-oxo-2,3-dihydro-1H-pyrazol-4-yl]benzamide] | 8 nM | > 10000 nM |
| COc1cc(F)c(-c2c(NC(=O)c3ccc(OC(F)F)cc3)c(=O)n(-c3nc(OCC(C)(C)O)ccc3C(F)(F)F)n2C)c(F)c1 [Example 288, N-[5-(2,6-difluoro-4-methoxyphenyl)-2-[6-(2-hydroxy-2-methylpropoxy)-3-(trifluoromethyl)pyridin-2-yl]-1-methyl-3-oxo-2,3-dihydro-1H-pyrazol-4-yl]-4-(difluoromethoxy)benzamide] | 1 nM | > 10000 nM |
| COc1cc(F)c(-c2c(NC(=O)c3ccc(OC(F)F)cc3)c(=O)n(-c3cccc(F)c3Cl)n2C)c(F)c1 [Example 175, N-[2-(2-chloro-3-fluorophenyl)-5-(2,6-difluoro-4-methoxyphenyl)-1-methyl-3-oxo-2,3-dihydro-1H-pyrazol-4-yl]-4-(difluoromethoxy)benzamide] | 25 nM | > 10000 nM |
| COc1cc(F)c(-c2c(NC(=O)c3ccc(OC(F)F)cc3)c(=O)n(Cc3nnc(C(C)C)o3)n2C)c(F)c1 [Example 57, N-[5-(2,6-difluoro-4-methoxyphenyl)-1-methyl-3-oxo-2-{[5-(propan-2-yl)-1,3,4-oxadiazol-2-yl]methyl}-2,3-dihydro-1H-pyrazol-4-yl]-4-(difluoromethoxy)benzamide] | 150 nM | 380 nM |
| COc1cc(F)c(-c2c(NC(=O)c3ccc(OC(F)F)cc3)c(=O)n(-c3nc(C(F)(F)F)ccc3OC)n2C)c(F)c1 [Example 371, N-(5-(2,6-Difluoro-4-methoxyphenyl)-2-(3-methoxy-6-(trifluoromethyl)pyridin-2-yl)-1-methyl-3-oxo-2,3-dihydro-1H-pyrazol-4-yl)-4-(difluoromethoxy)benzamide] | 6 nM | 240 nM |
| COc1cc(F)c(-c2c(NC(=O)c3ccc(OC(F)F)cc3)c(=O)n(-c3cccnc3OC)n2C)c(F)c1 [Example 330, N-(5-(2,6-Difluoro-4-methoxyphenyl)-2-(2-methoxypyridin-3-yl)-1-methyl-3-oxo-2,3-dihydro-1H-pyrazol-4-yl)-4-(difluoromethoxy)benzamide] | 6 nM | > 10000 nM |
| Cn1ncc2cc(-c3c(NC(=O)c4ccc(OC(F)F)cc4)c(=O)n(-c4ncccc4C(F)(F)F)n3C)ccc21 [Example 223, 4-(difluoromethoxy)-N-(1-methyl-5-(1-methyl-1H-indazol-5-yl)-3-oxo-2-(3-(trifluoromethyl)pyridin-2-yl)-2,3-dihydro-1H-pyrazol-4-yl)benzamide] | 166 nM | > 5000 nM |

Continued by falling EC50 (human FPR2), values first:

| EC50 (human FPR2) | EC50 (human FPR1) | SMILES |
| --- | --- | --- |
| 20 nM | > 10000 nM | CCc1cccnc1-n1c(=O)c(NC(=O)c2ccc(OC(F)F)cc2)c(-c2c(F)cc(OC)cc2F)n1C [Example 166, N-[5-(2,6-difluoro-4-methoxyphenyl)-2-(3-ethylpyridin-2-yl)-1-methyl-3-oxo-2,3-dihydro-1H-pyrazol-4-yl]-4-(difluoromethoxy)benzamide] |
| 15 nM | > 10000 nM | COc1cc(F)c(-c2c(NC(=O)c3ccc(Cl)cc3)c(=O)n(-c3ncccc3Cl)n2C)c(F)c1 [Example 164, 4-chloro-N-[2-(3-chloropyridin-2-yl)-5-(2,6-difluoro-4-methoxyphenyl)-1-methyl-3-oxo-2,3-dihydro-1H-pyrazol-4-yl]benzamide] |
| 15 nM | 2800 nM | COc1cc(F)c(-c2c(NC(=O)c3ccc(OC(F)F)cc3)c(=O)n(-c3cc(OCC(C)O)cc(C)n3)n2C)c(F)c1 (stereo not drawn) [Example 393, N-(5-(2,6-Difluoro-4-methoxyphenyl)-2-(4-(2-hydroxypropoxy)-6-methylpyridin-2-yl)-1-methyl-3-oxo-2,3-dihydro-1H-pyrazol-4-yl)-4-(difluoromethoxy)benzamide] |
| 14 nM | 920 nM | COc1cc(F)c(-c2c(NC(=O)c3ccc(OC(F)(F)F)cc3)c(=O)n(-c3ccc(F)cc3)n2C)c(F)c1 [Example 10, N-[5-(2,6-difluoro-4-methoxyphenyl)-2-(4-fluorophenyl)-1-methyl-3-oxo-2,3-dihydro-1H-pyrazol-4-yl]-4-(trifluoromethoxy)benzamide] |
| 10 nM | > 10000 nM | COc1cc(F)c(-c2c(NC(=O)c3ccc(OC(F)F)cc3)c(=O)n(-c3c(F)cccc3F)n2C)c(F)c1 [Example 27, N-[5-(2,6-difluoro-4-methoxyphenyl)-2-(2,6-difluorophenyl)-1-methyl-3-oxo-2,3-dihydro-1H-pyrazol-4-yl]-4-(difluoromethoxy)benzamide] |
| 4 nM | 1900 nM | COc1cc(F)c(-c2c(NC(=O)c3ccc(OC(F)F)cc3)c(=O)n(-c3cccc(Cl)c3Cl)n2C)c(F)c1 [Example 34, N-[2-(2,3-dichlorophenyl)-5-(2,6-difluoro-4-methoxyphenyl)-1-methyl-3-oxo-2,3-dihydro-1H-pyrazol-4-yl]-4-(difluoromethoxy)benzamide] |
| 2 nM | 1500 nM | COc1cc(F)c(-c2c(NC(=O)c3ccc(OC(F)F)cc3)c(=O)n(-c3nc(N4CCN(S(C)(=O)=O)CC4)ccc3C(F)(F)F)n2C)c(F)c1 [Example 268, N-[5-(2,6-difluoro-4-methoxyphenyl)-2-[6-(4-methanesulfonylpiperazin-1-yl)-3-(trifluoromethyl)pyridin-2-yl]-1-methyl-3-oxo-2,3-dihydro-1H-pyrazol-4-yl]-4-(difluoromethoxy)benzamide] |
